Reference: the supplement of paper PMC10307832

Key:
Assay in all cases: relative viability (nuclei count vs DMSO), 5 days (fraction); higher = more cells survive
[1] = test system: A549
Procedure, shortened: (§1)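 Values are medians from duplicate plates. Each reflects relative viability, defined as the nuclei count of treated wells over that of vehicle wells. Lung cancer cell lines in 1536-well plates were pin-tool dosed one day after seeding with one drug alone or with a fixed anchor-drug dose plus five library-drug doses (not always all listed) in √10 steps, then fixed, stained and imaged at 4× after 5 days.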

[2] = test system: Calu-6
Procedure, shortened: as §1

[3] = test system: EBC-1
Procedure, shortened: as §1

[4] = test system: HCC-78
Procedure, shortened: as §1

[5] = test system: IA-LM
Procedure, shortened: as §1

[6] = test system: NCI-H1299
Procedure, shortened: as §1

[7] = test system: NCI-H1563
Procedure, shortened: as §1

[8] = test system: NCI-H1623
Procedure, shortened: as §1

[9] = test system: NCI-H1703
Procedure, shortened: as §1

[10] = test system: NCI-H2087
Procedure, shortened: as §1

[11] = test system: NCI-H322M
Procedure, shortened: as §1

[12] = test system: HCC-44
Procedure, shortened: as §1

[13] = test system: NCI-H1648
Procedure, shortened: as §1

## Cc1csc(=NC2CCCCC2)n1/N=C/c1ccc(O)c(O)c1O [MIM1] + COc1cc2c(Oc3ccc(NC(=O)C4(C(=O)Nc5ccc(F)cc5)CC4)cc3F)ccnc2cc1OCCCN1CCOCC1 [Foretinib] (partner 0.25 µM)
[1]; first compound 0.2 µM
  relative viability: 0.917
[1]; first compound 0.6325 µM
  relative viability: 0.939
[1]; first compound 2 µM
  relative viability: 1.02
[1]; first compound 6.325 µM
  relative viability: 0.771
[1]; first compound 20 µM
  relative viability: 0.144
[2]; first compound 0.2 µM
  relative viability: 0.847
[2]; first compound 0.6325 µM
  relative viability: 0.894
[2]; first compound 2 µM
  relative viability: 0.816
[2]; first compound 6.325 µM
  relative viability: 0.797
[2]; first compound 20 µM
  relative viability: 0.318
[3]; first compound 0.2 µM
  relative viability: 0.108
[3]; first compound 0.6325 µM
  relative viability: 0.102
[3]; first compound 2 µM
  relative viability: 0.119
[3]; first compound 6.325 µM
  relative viability: 0.106
[3]; first compound 20 µM
  relative viability: 0.119
[4]; first compound 0.2 µM
  relative viability: 0.558
[4]; first compound 0.6325 µM
  relative viability: 0.563
[4]; first compound 2 µM
  relative viability: 0.539
[4]; first compound 6.325 µM
  relative viability: 0.553
[4]; first compound 20 µM
  relative viability: 0.911
[5]; first compound 0.2 µM
  relative viability: 1.11
[5]; first compound 0.6325 µM
  relative viability: 1.29
[5]; first compound 2 µM
  relative viability: 1.28
[5]; first compound 6.325 µM
  relative viability: 0.842
[5]; first compound 20 µM
  relative viability: 0.476
[6]; first compound 0.2 µM
  relative viability: 1.15
[6]; first compound 0.6325 µM
  relative viability: 1.09
[6]; first compound 2 µM
  relative viability: 1.14
[6]; first compound 6.325 µM
  relative viability: 1.06
[6]; first compound 20 µM
  relative viability: 1.06
[7]; first compound 0.2 µM
  relative viability: 0.971
[7]; first compound 0.6325 µM
  relative viability: 0.975
[7]; first compound 2 µM
  relative viability: 0.866
[7]; first compound 6.325 µM
  relative viability: 0.819
[7]; first compound 20 µM
  relative viability: 0.772
[8]; first compound 0.2 µM
  relative viability: 0.88
[8]; first compound 0.6325 µM
  relative viability: 0.721
[8]; first compound 2 µM
  relative viability: 0.914
[8]; first compound 6.325 µM
  relative viability: 0.718
[8]; first compound 20 µM
  relative viability: 0.409
[9]; first compound 0.2 µM
  relative viability: 0.417
[9]; first compound 0.6325 µM
  relative viability: 0.391
[9]; first compound 2 µM
  relative viability: 0.375
[9]; first compound 6.325 µM
  relative viability: 0.296
[9]; first compound 20 µM
  relative viability: 0.181
[10]; first compound 0.2 µM
  relative viability: 1.04
[10]; first compound 0.6325 µM
  relative viability: 1.31
[10]; first compound 2 µM
  relative viability: 1.18
[10]; first compound 6.325 µM
  relative viability: 0.813
[10]; first compound 20 µM
  relative viability: 0.847
[11]; first compound 0.2 µM
  relative viability: 0.986
[11]; first compound 0.6325 µM
  relative viability: 0.895
[11]; first compound 2 µM
  relative viability: 0.867
[11]; first compound 6.325 µM
  relative viability: 0.85
[11]; first compound 20 µM
  relative viability: 0.548

## Cc1csc(=NC2CCCCC2)n1/N=C/c1ccc(O)c(O)c1O [MIM1] + COc1cccc2cc(-c3nc([C@H]4CC[C@H](C(=O)O)CC4)n4ncnc(N)c34)[nH]c12 [OSI-027] (partner 0.5 µM)
[12]; first compound 0.2 µM
  relative viability: 0.699
[12]; first compound 0.6325 µM
  relative viability: 0.5
[12]; first compound 2 µM
  relative viability: 0.271
[12]; first compound 6.325 µM
  relative viability: 0.448
[12]; first compound 20 µM
  relative viability: 0.184
[4]; first compound 0.2 µM
  relative viability: 0.365
[4]; first compound 0.6325 µM
  relative viability: 0.356
[4]; first compound 2 µM
  relative viability: 0.303
[4]; first compound 6.325 µM
  relative viability: 0.384
[4]; first compound 20 µM
  relative viability: 0.468
[7]; first compound 0.2 µM
  relative viability: 0.725
[7]; first compound 0.6325 µM
  relative viability: 0.821
[7]; first compound 2 µM
  relative viability: 0.688
[7]; first compound 6.325 µM
  relative viability: 0.72
[7]; first compound 20 µM
  relative viability: 0.525
[8]; first compound 0.2 µM
  relative viability: 0.435
[8]; first compound 0.6325 µM
  relative viability: 0.416
[8]; first compound 2 µM
  relative viability: 0.412
[8]; first compound 6.325 µM
  relative viability: 0.36
[8]; first compound 20 µM
  relative viability: 0.383
[13]; first compound 0.2 µM
  relative viability: 0.246
[13]; first compound 0.6325 µM
  relative viability: 0.272
[13]; first compound 2 µM
  relative viability: 0.28
[13]; first compound 6.325 µM
  relative viability: 0.275
[13]; first compound 20 µM
  relative viability: 0.226
[10]; first compound 0.2 µM
  relative viability: 0.688
[10]; first compound 0.6325 µM
  relative viability: 0.511
[10]; first compound 2 µM
  relative viability: 0.696
[10]; first compound 6.325 µM
  relative viability: 0.547
[10]; first compound 20 µM
  relative viability: 0.34
[11]; first compound 0.2 µM
  relative viability: 0.593
[11]; first compound 0.6325 µM
  relative viability: 0.526
[11]; first compound 2 µM
  relative viability: 0.543
[11]; first compound 6.325 µM
  relative viability: 0.508
[11]; first compound 20 µM
  relative viability: 0.288
